Source: PubChem BioAssay AID732 (Emory University Molecular Libraries Screening Center, 2007)
The source made the active and inactive calls. No rule for the calls is given here.

The compounds below were run on in vivo angiogenesis, blood vessel count (assay: reduction of blood vessel formation in vivo – HTS, in vivo study (AID 732;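 also: zebrafish embryos dosed at one day post fertilization; 0% = reference inhibitor and 100% = plate mean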)). Conditions: active compounds read low;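 tested at 30 µM in the well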.
With C[C@]12CC[C@H]3[C@@H](CCC4C[C@H](O)CC[C@@]43C)[C@@H]1CC[C@@H]2O (stereo partly specified) the vessel count % control was 106% (inactive). O=S(=O)(O)C1CCNCC1 was tested, and the vessel count % control was 89.3% (inactive). O=C(O)c1cc(=O)cc(C(=O)O)[nH]1 was tested, and the vessel count % control was 86.1% (inactive). For CN(C)c1nc(N)c(C(=O)N=C(N)N)nc1Cl, the vessel count % control was 106% (inactive). With O=c1oc(Cl)c(Cl)c2ccccc12 the vessel count % control was 104% (inactive). In the case of OC1CCCCC1N1CCC(c2ccccc2)CC1 (stereo unspecified), the vessel count % control is reported as 99% (inactive). For Cc1nnc(SCC2=C(C(=O)O)N3C(=O)[C@@H](NC(=O)Cn4cnnn4)[C@H]3SC2)s1, the vessel count % control was 90.8% (inactive). With CN(C)CCC=C1c2ccccc2CCc2ccccc21 the vessel count % control was 91.2% (inactive). For C[C@](N)(Cc1ccc(O)cc1)C(=O)O, the vessel count % control was 116% (inactive). CCN(CC)CCCC(C)Nc1c2ccc(Cl)cc2nc2ccc(OC)cc12 (stereo unspecified) was tested, and the vessel count % control was 0% (inactive). NC(CCCCCP(=O)(O)O)C(=O)O (stereo unspecified) was tested, and the vessel count % control was 113% (inactive). COC(=O)C1=C(C)NC(C)=C([N+](=O)[O-])C1c1ccccc1C(F)(F)F (stereo unspecified) was tested, and the vessel count % control was 92.2% (inactive). With NC(=O)c1cc(N2CC2)c([N+](=O)[O-])cc1[N+](=O)[O-] the vessel count % control was 107% (inactive). For C/C=C1\C(=O)CC2C3CCC4=CC(=O)CC[C@]4(C)C3CC[C@]12C (stereo partly specified), the vessel count % control was 102% (inactive). With CN(CCOc1ccc(C[C@H](Nc2ccccc2C(=O)c2ccccc2)C(=O)O)cc1)c1ccccn1 the vessel count % control was 100% (inactive). For NNc1nncc2ccccc12, the vessel count % control was 92.2% (inactive). In the case of c1ccc2nc(N3CCNCC3)ccc2c1, the vessel count % control is reported as 98% (inactive). In the case of CN(C(=O)CCCOc1ccc2[nH]c(=O)ccc2c1)C1CCCCC1, the vessel count % control is reported as 94.5% (inactive). With COC(=O)[C@@H](N)Cc1ccc(O)c(O)c1 the vessel count % control was 99.1% (inactive). For O=C(NCC1CCCCN1)c1cc(OCC(F)(F)F)ccc1OCC(F)(F)F (stereo unspecified), the vessel count % control was 127% (inactive). For Nc1ncnc2c1nc(Sc1ccc(Cl)cc1)n2C1OC2COP(=O)(O)O[C@@H]2[C@@H]1O (stereo partly specified), the vessel count % control was 88.9% (inactive). With Oc1[nH]c2c(Cl)cc(Cl)cc2c1C1=Nc2ccc(Br)cc2/C1=N\OCCN1CCNCC1 the vessel count % control was 90.9% (inactive). In the case of CN(C)CCOC(=O)COc1ccc(Cl)cc1, the vessel count % control is reported as 102% (inactive). For N#C/C(=C\c1c[nH]c2ccccc12)C(=O)c1ccc(O)c(O)c1, the vessel count % control was 102% (inactive). For C=CCN1CC[C@]23c4c5ccc(O)c4O[C@@H]2/C(=N/N=C2\CC[C@@]4(O)C6Cc7ccc(O)c8c7[C@@]4(CCN6CC=C)[C@@H]2O8)CC[C@@]3(O)C1C5, the vessel count % control was 100% (inactive). In the case of CC[N+](CC)(CC)CCOc1cccc(OCC[N+](CC)(CC)CC)c1OCC[N+](CC)(CC)CC, the vessel count % control is reported as 101% (inactive). In the case of CN1CCN(CCCN2c3ccccc3Sc3ccc(Cl)cc32)CC1, the vessel count % control is reported as 68.9% (inactive). For COCCc1ccc(OCC(O)CNC(C)C)cc1 (stereo unspecified), the vessel count % control was 128% (inactive). With COC(=O)C1=C(C)NC(C)=C(C(=O)OCCN(C)Cc2ccccc2)C1c1cccc([N+](=O)[O-])c1 (stereo unspecified) the vessel count % control was 65.5% (inactive). For N[C@@H](Cn1cc(I)c(=O)[nH]c1=O)C(=O)O, the vessel count % control was 107% (inactive). C[N+](C)(CCCCCC[N+](C)(C)CCCN1C(=O)c2cccc3cccc(c23)C1=O)CCCN1C(=O)c2cccc3cccc(c23)C1=O was tested, and the vessel count % control was 115% (inactive). In the case of CSc1ccc(C(=O)c2[nH]c(=O)[nH]c2C)cc1, the vessel count % control is reported as 76.7% (inactive). For CNC(=O)OCC[N+](C)(C)C, the vessel count % control was 96.2% (inactive). In the case of CCSC(N)=Nc1ccc(C(F)(F)F)cc1, the vessel count % control is reported as 87.5% (inactive). With CCN1C(=O)C=CC1=O the vessel count % control was 104% (inactive). NC(=O)C(=O)O was tested, and the vessel count % control was 125% (inactive). CC1=NS(=O)(=O)c2cc(Cl)ccc2N1 was tested, and the vessel count % control was 116% (inactive). O=C1C(c2c(O)[nH]c3c(Cl)ccc(Cl)c23)=Nc2ccc(Br)cc21 was tested, and the vessel count % control was 121% (inactive). For CN(C)CCCO[C@@H]1[C@H]2OC(C)(C)O[C@H]2O[C@@H]1C(O)CO (stereo partly specified), the vessel count % control was 88% (inactive). Nc1nc2[nH]c(=O)cnc2c(=O)[nH]1 was tested, and the vessel count % control was 140% (inactive). In the case of O=C(Nc1cccc(C(=O)Nc2ccc(S(=O)(=O)O)c3cc(S(=O)(=O)O)cc(S(=O)(=O)O)c23)c1)Nc1cccc(C(=O)Nc2ccc(S(=O)(=O)O)c3cc(S(=O)(=O)O)cc(S(=O)(=O)O)c23)c1, the vessel count % control is reported as 88.2% (inactive). OC(CN1CCN(c2cccc(Cl)c2)CC1)C(c1ccccc1)c1ccccc1 (stereo unspecified) was tested, and the vessel count % control was 67.8% (inactive). With C=CC(N)CCC(=O)O (stereo unspecified) the vessel count % control was 85.7% (inactive). CO[C@H]1CC=C2CCN3CCC4=C(CC(=O)OC4)[C@]23C1 was tested, and the vessel count % control was 105% (inactive). With C[N+](C)(C)CCOC(=O)CBr the vessel count % control was 95.6% (inactive). With CN1C2CCC1CC(NC(=O)c1nn(C)c3ccccc13)C2 (stereo unspecified) the vessel count % control was 104% (inactive). With Oc1cc2c(cc1O)[C@H]1c3ccccc3CN[C@@H]1CC2 the vessel count % control was 83.3% (inactive). CCN(CC)CC(=O)Nc1c(C)cccc1C was tested, and the vessel count % control was 73.7% (inactive). Cc1nc(-c2ccc(-c3ccc(C(=O)N4CCc5cc6c(cc54)C4(CCN(C)CC4)CO6)cc3)c(C)c2)no1 was tested, and the vessel count % control was 108% (inactive). Nc1nc(N)c2nc(-c3ccccc3)c(N)nc2n1 was tested, and the vessel count % control was 109% (inactive). With CCN1C[C@]2(C)CC[C@H](O)[C@@]34C5C[C@@H]6[C@@H](OC)C[C@@](O)(C5[C@H]6O)[C@@H](CC23)C14 (stereo partly specified) the vessel count % control was 76.7% (inactive). With Oc1cc(O)cc(/C=C/c2ccc(O)c(O)c2)c1 the vessel count % control was 101% (inactive). With CN(C)C/C=C(/c1ccc(Br)cc1)c1cccnc1 the vessel count % control was 104% (inactive). With O=C(O)c1cc2cc(Cc3cccnc3)ccc2o1 the vessel count % control was 100% (inactive). For C[C@]12N[C@H](Cc3ccccc31)c1ccccc12, the vessel count % control was 85.8% (inactive). For CNCC[C@H](Oc1ccc(C(F)(F)F)cc1)c1ccccc1, the vessel count % control was 98.4% (inactive). With Cc1c(C)c2c(c(C)c1O)CCC(C)(CN1CCN(c3cc(N4CCCC4)nc(N4CCCC4)n3)CC1)O2 (stereo unspecified) the vessel count % control was 99.2% (inactive). C=CCN1CCC2(C)c3cc(O)ccc3CC1[C@@H]2C (stereo partly specified) was tested, and the vessel count % control was 89.5% (inactive). For CCOC(=O)C1=C(C)NC(C)=C(C(=O)OC)C1c1cccc(Cl)c1Cl (stereo unspecified), the vessel count % control was 56% (inactive). For CCN(Cc1ccncc1)C(=O)C(CO)c1ccccc1 (stereo unspecified), the vessel count % control was 114% (inactive). With CNCC[C@@H](Oc1ccc(C(F)(F)F)cc1)c1ccccc1 the vessel count % control was 113% (inactive). In the case of O=C(O)C1CCCNC1 (stereo unspecified), the vessel count % control is reported as 120% (inactive). For O=C(O)Cc1cnc[nH]1, the vessel count % control was 110% (inactive). With NC(N)=N[C@@H](CCC(=O)O)C(=O)O the vessel count % control was 99.2% (inactive). With NS(=O)(=O)c1cc2c(cc1Cl)NC(C1CC3C=CC1C3)NS2(=O)=O (stereo unspecified) the vessel count % control was 107% (inactive). With N[C@H](CCCCCP(=O)(O)O)C(=O)O the vessel count % control was 84.2% (inactive). In the case of CCCCC/C=C\C/C=C\C/C=C\C/C=C\CCCC(=O)NCC(=O)O, the vessel count % control is reported as 83.7% (inactive). NCCc1cnc[nH]1 was tested, and the vessel count % control was 93.3% (inactive). Nc1cc(=O)[nH]c(N)n1 was tested, and the vessel count % control was 119% (inactive). With NC(=O)CN1CC(O)CC1=O (stereo unspecified) the vessel count % control was 90.1% (inactive). In the case of CC(C)NC[C@@H](O)c1ccc(O)c(O)c1, the vessel count % control is reported as 108% (inactive). NC[C@@H]1O[C@H](C23CC4CC(CC(C4)C2)C3)Cc2c1ccc(O)c2O was tested, and the vessel count % control was 110% (inactive). COc1cc(-c2ccc(=O)[nH]n2)ccc1OC(F)F was tested, and the vessel count % control was 75.5% (inactive). In the case of N[C@@H](COP(=O)(O)O)C(=O)O, the vessel count % control is reported as 105% (inactive). In the case of N#Cc1c(-c2ccccc2)no[n+]1[O-], the vessel count % control is reported as 120% (inactive). In the case of CP(=O)(O)C1=CCNCC1, the vessel count % control is reported as 116% (inactive). For NC1(C(=O)O)CCCCC1, the vessel count % control was 110% (inactive). With CCC(CO)Nc1nc(NCc2ccccc2)c2ncn(C(C)C)c2n1 (stereo unspecified) the vessel count % control was 82.5% (inactive). For O=c1[nH]ccc2c(O)cccc12, the vessel count % control was 0% (inactive). For Cc1ccc(C(=O)Nc2ccc(S(=O)(=O)O)c3cc(S(=O)(=O)O)cc(S(=O)(=O)O)c23)cc1NC(=O)c1cccc(NC(=O)Nc2cccc(C(=O)Nc3cc(C(=O)Nc4ccc(S(=O)(=O)O)c5cc(S(=O)(=O)O)cc(S(=O)(=O)O)c45)ccc3C)c2)c1, the vessel count % control was 119% (inactive). O=Nc1c(-c2c(O)[nH]c3ccc([N+](=O)[O-])cc23)[nH]c2ccc(Br)cc12 was tested, and the vessel count % control was 79.3% (inactive). For CCN(CC)CCOC(=O)C1(C2CCCCC2)CCCCC1, the vessel count % control was 86.4% (inactive). CC(C)=CCC/C(C)=C/CC/C(C)=C/CSc1ccccc1C(=O)O was tested, and the vessel count % control was 78.4% (inactive). With C[N+](C)(C)CC(=O)O the vessel count % control was 94% (inactive). For CN[C@H]1CC[C@@H](c2ccc(Cl)c(Cl)c2)c2ccccc21, the vessel count % control was 98% (inactive). In the case of C1CCC(N=C(NC23CC4CC(CC(C4)C2)C3)N2CCOCC2)CC1, the vessel count % control is reported as 111% (inactive). O=C1CC[C@@]2(O)C3Cc4ccc(O)c5c4C2(CCN3CC2CC2)[C@H]1O5 (stereo partly specified) was tested, and the vessel count % control was 73.7% (inactive). For Nc1ccn([C@@H]2O[C@H](CO)[C@@H](O)[C@@H]2O)c(=O)n1, the vessel count % control was 104% (inactive). With c1cc(CN2CCCCC2)cc(OCCCNc2nc3ccccc3s2)c1 the vessel count % control was 112% (inactive). In the case of N#C/C(=C\c1ccc(O)c(O)c1)C(=O)NCCCNC(=O)/C(C#N)=C/c1ccc(O)c(O)c1, the vessel count % control is reported as 118% (inactive). With NC(N)=NCCC[C@H](N)C(=O)O the vessel count % control was 94.3% (inactive). In the case of CC(=O)OCC1=C(C(=O)[O-])N2C(=O)[C@@H](NC(=O)CCC[C@@H](N)C(=O)[O-])[C@H]2SC1.[Zn+2], the vessel count % control is reported as 106% (inactive). With C=CCc1ccccc1OCC(O)CNC(C)C (stereo unspecified) the vessel count % control was 105% (inactive). With NC(=O)c1ncn([C@@H]2O[C@H](CO)[C@@H](O)[C@H]2O)n1 the vessel count % control was 63.2% (inactive). In the case of CN1CCc2cc(NC(=O)Nc3cccnc3)ccc21, the vessel count % control is reported as 86.6% (inactive). With C[C@H]1O[C@@H](n2cc(F)c(=O)[nH]c2=O)[C@H](O)[C@@H]1O the vessel count % control was 108% (inactive).
